Source: patent US20250099427A1, “Drug and Method of Treating or Preventing Renal Disease Using Drug” (Showa University, priority 2018, published 2025)

Test system: Chronic Renal Failure Animal Model
Experiment: Test using chronic renal failure animal model (nephrectomy + acetic acid application), renal function parameters
Format: in vivo, mouse
Conditions: mean±standard error; for Urinary output / Urinary protein: 24 h urine 12 weeks after acetic acid; for BUN / sCr: evaluated 12 weeks after acetic acid; for Ccr: creatinine clearance, 12 weeks after acetic acid
Procedure: A male ddY strain mouse (body weight: 30 g to 40 g) was used. Under anesthesia with isoflurane, the right flank of the mouse was incised, the renal arteries and veins were ligated, and then the right kidney was isolated. After suturing, acrinol was applied to the suture site as a disinfection treatment, and enrofloxacin was subcutaneously administered at 5 mg/kg as a preventive measure against infection, and acetaminophen was subcutaneously administered at 75 mg/kg as an analgesic treatment. After a recovery period of 3 to 4 weeks, the left abdomen of the mouse was incised, 100% acetic acid was applied to both sides of the kidney 10 times. This was defined as one course, and two courses were conducted at 5 minute intervals. After suturing, postoperative treatment was conducted in the same manner as in the removal of one of the kidneys. Considering the effect of surgery, a sham group to which acetic acid was not applied was provided.
4 weeks after the application of acetic acid, SMTP-7 was administered at a dose of 10 mg/kg or 30 mg/kg. The administration was carried out three times a week for 8 consecutive weeks by intraperitoneal administration. In addition, physiological saline was similarly administered to the sham group (without acetic acid application) and the Control group (with acetic acid application).
12 weeks after the application of acetic acid, urine was collected for 24 hours using a metabolic cage, and the urinary output was measured. During collecting urine, water was freely given. After urine collection, blood was collected from the descending aorta, the collected blood was centrifuged at 3000 rpm for 15 minutes, serum was separated, and BUN (urea nitrogen) and sCr (serum creatinine value) were measured. Further, protein and creatinine in the urine were also measured to calculate creatinine clearance (Ccr). BUN was measured using Urea B-test Wako (manufactured by Wako Pure Chemical Industries, Ltd.) and a QuantiChrom Urea Assay Kit (manufactured by Funakoshi Co., Ltd.), sCr was measured using Lab Assay Creatinine (manufactured by Wako Pure Chemical Industries, Ltd.), and urinary protein was measured using a BCA Protein assay kit (Thermo Fisher Scientific).
Renal function was evaluated by measuring BUN, sCr, urinary output, and urinary protein. In addition, urinary creatinine was measured to calculate creatinine clearance (Ccr).
In Table 9, the experimental results are expressed in mean±standard error. With reference to statistically significant difference, an unpaired test between two groups (Student's t-test) was conducted for comparison between two groups, and one-way analysis of variance was conducted and then a Dunnett test was conducted for comparison among multiple groups. In all cases, a significance level of 5% or less (P<0.05) was regarded as significant difference.
The experiment and evaluation were carried out in the same manner as in the SMTP-7 (30 mg/kg) administration group, except that edaravone (30 mg/kg) was administered instead of SMTP-7 in the SMTP-7 (30 mg/kg) administration group.

[1] = 10 mg/kg intraperitoneal three times a week for 8 weeks from 4 weeks after acetic acid
[2] = 30 mg/kg intraperitoneal three times a week for 8 weeks from 4 weeks after acetic acid

With `CC(C)=CCC/C(C)=C/CC[C@@]1(C)Oc2c(c(O)cc3c2CN(CCC[C@@H](C(=O)O)N2Cc4c(cc(O)c5c4O[C@](C)(CC/C=C(\C)CCC=C(C)C)[C@@H](O)C5)C2=O)C3=O)C[C@@H]1O` [SMTP-7] the Urinary output [1] was 0.0986 ± 0.022 mL/min/kg, the Urinary protein [1] was 968 ± 137 mg/kg/day and the BUN [1] was 80.5 ± 13.3 mg/dL. The sCr [1] was 0.71 ± 0.07 mg/dL, the Urinary output [2] was 0.0537 ± 0.0128 mL/min/kg and the Urinary protein [2] was 527 ± 96.2 mg/kg/day. It also gave a BUN [2] of 55.1 ± 1.57 mg/dL, a sCr [2] of 0.60 ± 0.05 mg/dL and a Ccr [1] of 1.95 ± 0.23 mL/min/kg. The Ccr (30 mg/kg intraperitoneal three times a week for 8 weeks from 4 weeks after acetic acid, 30 mg/kg) was 2.66 ± 0.37 mL/min/kg.
